≈ marks a conversion by molar mass, not a printed value.
Columns and labels:
cells = format: cell-based; settings: Homo sapiens, NCI-H1781, 96 h
Description: Inhibition of HER2-G776delinsVC mutant (unknown origin) expressed in human H1781 cells assessed as reduction in HER2 induced cell viability after 96 hrs by CellTiter-Glo assay

[1] = target: Receptor tyrosine-protein kinase erbB-2 (Homo sapiens, UniProt P04626); test: Inhibition of C-terminal His6-tagged HER2 (703 to 1029 residues) (unknown origin) expressed in Sf9 insect cells using TK as substrate preincubated for 30 mins followed by substrate addition and measured after 60 mins in presence of XL665-labeled streptavidin by HTRF assay
[2] = Inhibition of HER2-A775_G776insYVMA mutant (unknown origin) expressed in mouse BaF3 cells assessed as reduction in HER2 induced cell viability after 96 hrs by CellTiter-Glo assay; format: cell-based; settings: BaF3, 96 h
[3] = Ratio of apparent permeability across basolateral to apical over apical to basolateral side in human Caco2 cells at 5 uM after 2 hrs by transwell assay; format: ADME, cell-based; settings: Caco-2
[4] = Apparent permeability across basolateral side to apical side in human Caco-2 cells at 5 uM after 2 hrs by transwell assay; format: ADME, cell-based; settings: read-out: permeability
[5] = Stability of compound in mouse plasma assessed as parent compound remaining at 5 uM measured for 1 hr by LC-MS analysis; format: ADME, cell-free; settings: for remaining at 1 h, 5 µM: read-out: Stabilty
[6] = Kinetic solubility of compound in HEPES buffer a pH 7.4 at 500 uM after 90 mins; format: physicochemical; settings: read-out: Kinetic_solubility
[7] = Intrinsic clearance in human liver microsomes at 3 uM measured up to 50 mins by LC-MS analysis; format: ADME, Microsome; settings: read-out: CLH
[8] = Stability of compound in human plasma assessed as parent compound remaining at 5 uM measured for 1 hr by LC-MS analysis; format: ADME, cell-free; settings: read-out: Stabilty
[9] = Intrinsic clearance in mouse liver microsomes at 3 uM measured up to 60 mins by LC-MS analysis; format: ADME, Microsome; settings: read-out: CLH
[10] = Apparent permeability across apical side to basolateral side in human Caco-2 cells at 5 uM after 2 hrs by transwell assay; format: ADME, cell-based; settings: read-out: permeability
[11] = Solubility of compound in aqueous buffer at pH 7.4 after 120 mins by turbidometric assay; format: physicochemical
[12] = Inhibition of C-terminal His6-tagged HER2-A775_G776insYVMA mutant (703 to 1029 residues) (unknown origin) expressed in Sf9 insect cells using TK as substrate measured up to 2 to 40 mins by fluorescence assay; parameters: species or system Homo sapiens

Chain of Receptor tyrosine-protein kinase erbB-2 (P04626 whole entry, the tested form may be a part): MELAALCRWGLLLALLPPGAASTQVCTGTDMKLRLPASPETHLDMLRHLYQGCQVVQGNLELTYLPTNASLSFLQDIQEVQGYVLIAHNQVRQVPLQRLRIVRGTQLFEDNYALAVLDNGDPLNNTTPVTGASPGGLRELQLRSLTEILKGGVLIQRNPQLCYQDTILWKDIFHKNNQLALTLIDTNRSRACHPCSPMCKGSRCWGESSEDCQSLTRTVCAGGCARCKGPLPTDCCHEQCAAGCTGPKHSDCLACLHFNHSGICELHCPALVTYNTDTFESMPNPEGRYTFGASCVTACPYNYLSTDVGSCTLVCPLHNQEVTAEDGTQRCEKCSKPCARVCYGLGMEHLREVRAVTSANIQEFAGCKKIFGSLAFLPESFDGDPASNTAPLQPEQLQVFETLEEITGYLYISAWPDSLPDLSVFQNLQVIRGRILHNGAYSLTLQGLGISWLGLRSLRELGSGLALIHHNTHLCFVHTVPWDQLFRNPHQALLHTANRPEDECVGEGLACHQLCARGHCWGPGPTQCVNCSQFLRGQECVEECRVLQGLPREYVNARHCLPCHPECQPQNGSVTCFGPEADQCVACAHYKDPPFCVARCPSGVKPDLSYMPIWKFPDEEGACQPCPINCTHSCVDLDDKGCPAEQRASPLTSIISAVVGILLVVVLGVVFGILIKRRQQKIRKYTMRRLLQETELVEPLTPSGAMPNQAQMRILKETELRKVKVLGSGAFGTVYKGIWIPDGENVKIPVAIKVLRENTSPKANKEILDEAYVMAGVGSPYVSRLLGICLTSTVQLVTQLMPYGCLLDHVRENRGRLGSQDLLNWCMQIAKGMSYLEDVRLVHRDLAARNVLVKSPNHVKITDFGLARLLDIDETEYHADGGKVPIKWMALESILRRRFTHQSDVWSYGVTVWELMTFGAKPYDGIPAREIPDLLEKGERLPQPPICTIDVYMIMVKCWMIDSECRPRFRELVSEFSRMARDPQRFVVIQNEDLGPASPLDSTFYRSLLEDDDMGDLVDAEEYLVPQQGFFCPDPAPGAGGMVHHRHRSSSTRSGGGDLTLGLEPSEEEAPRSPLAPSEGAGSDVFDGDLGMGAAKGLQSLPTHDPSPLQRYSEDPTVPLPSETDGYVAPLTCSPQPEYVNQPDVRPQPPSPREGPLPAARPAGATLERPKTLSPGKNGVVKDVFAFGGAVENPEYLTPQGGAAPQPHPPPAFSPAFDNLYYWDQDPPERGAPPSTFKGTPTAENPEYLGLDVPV

With `C=CC(=O)Nc1cc(-c2c[nH]c3ncnc(Nc4ccc(OCc5ccccn5)c(Cl)c4)c23)ccc1OC(C)COC` (stereo not drawn) the IC50 (cells) was 549 nM, the IC50 [1] was 14 nM and the IC50 [2] was 259 nM.
`C=CC(=O)Nc1cccc(-c2c(-c3ccc(N4CCN(C)CC4)cc3)[nH]c3ncn(CC(C)C)c(=O)c23)c1` gave an IC50 (cells) of 988 nM, an IC50 [1] of 321 nM and an IC50 [2] of 2420 nM.
With `C=CC(=O)Nc1cccc(-c2c(-c3ccc(N4CCN(C)CC4)cc3)[nH]c3ncnc(Nc4ccc(OCc5ccccn5)c(Cl)c4)c23)c1` the IC50 (cells) was 252 nM, the IC50 [1] was 14 nM and the IC50 [2] was 285 nM.
For `C=CC(=O)Nc1cccc(-c2c(-c3ccc(N4CCN(C)CC4)cc3)[nH]c3ncnc(Nc4ccc(CN5C(=O)c6ccccc6C5=O)cc4)c23)c1`, the IC50 (cells) was 490 nM, the IC50 [1] was 55 nM and the IC50 [2] was 638 nM.
For `C=CC(=O)Nc1cccc(-c2c[nH]c3ncnc(Nc4ccc(OCN5C(=O)c6ccccc6C5=O)cc4)c23)c1`, the IC50 (cells) was 383 nM, the IC50 [1] was 4.5 nM and the IC50 [2] was 562 nM.
In the case of `C=CC(=O)Nc1cccc(-c2c(-c3ccc(N4CCN(C)CC4)cc3)[nH]c3ncnc(OCC(C)C)c23)c1`, the IC50 (cells) is reported as 2310 nM, the IC50 [1] is reported as 26 nM and the IC50 [2] is reported as 1120 nM.
Molecule `COc1cc2ncnc(Nc3ccc(F)c(Cl)c3)c2cc1OCCCN1CCOCC1` [GEFITINIB] has an IC50 [2] of 2880 nM.
With `C=CC(=O)Nc1cccc(-c2c[nH]c3ncnc(Nc4ccc(Oc5ccccc5)cc4)c23)c1` the IC50 (cells) was greater than 3000 nM, the IC50 [1] was 13 nM and the IC50 [2] was greater than 3000 nM.
`C=CC(=O)N1CCC(Oc2cc3c(Nc4ccc(Cl)c(Cl)c4F)ncnc3cc2OC)CC1` [POZIOTINIB] gave an efflux ratio at 2 h, 5 µM [3] of 0.36, a Papp B→A at 2 h, 5 µM [4] of 7.5 ×10⁻⁶ cm/s and an IC50 (cells) of 105 nM. For the same molecule, the Stabilty ([5]; 1 h, 5 µM) was 120.4%, the solubility kinetic at 1.5 h, 500 µM [6] was 39.3 µM (≈ 19.3 µg/mL) and the microsomal CLint at 3 µM [7] was 22 µL/min/mg. For the same molecule, the remaining at 1 h, 5 µM [8] was 86.9%, the microsomal CLint at 3 µM [9] was 35.4 µL/min/mg and the IC50 [1] was 12 nM. For the same molecule, the Papp A→B at 2 h, 5 µM [10] was 21.1 ×10⁻⁶ cm/s and the IC50 [2] was less than 14 nM.
With `C=CC(=O)Nc1cccc(-c2c(-c3ccc(N4CCN(C)CC4)cc3)[nH]c3ncn(C)c(=O)c23)c1` the IC50 (cells) was 1230 nM, the IC50 [1] was 146 nM and the IC50 [2] was 3300 nM.
`C=CC(=O)Nc1cccc(-c2c[nH]c3ncnc(Nc4ccc(OC(c5ccccc5)c5ccccc5)cc4)c23)c1` gave an IC50 (cells) of 6390 nM, an IC50 [1] of 26 nM and an IC50 [2] of 497 nM.
With `C=CC(=O)Nc1cccc(-c2c(-c3ccc(N4CCN(C)CC4)cc3)[nH]c3ncnc(Nc4ccc(NC(=O)C(c5ccccc5)N5Cc6ccccc6C5=O)cc4)c23)c1` (stereo not drawn) the IC50 (cells) was 699 nM, the IC50 [1] was 43 nM and the IC50 [2] was 2680 nM.
With `C=CC(=O)Nc1cccc(-c2c[nH]c3ncnc(Nc4ccc(Cc5ccccc5)cc4)c23)c1` the IC50 (cells) was greater than 3000 nM, the IC50 [1] was 29 nM and the IC50 [2] was 754 nM.
Work on `C=CC(=O)Nc1cccc(-c2c[nH]c3ncnc(Nc4ccc5c(cnn5Cc5ccccc5)c4)c23)c1` yielded an IC50 (cells) of 126 nM, an IC50 [1] of 12 nM and an IC50 [2] of 53 nM.
In the case of `C=CC(=O)Nc1cccc(-c2c(-c3ccc(N4CCN(C)CC4)cc3)[nH]c3ncnc(OC)c23)c1`, the IC50 (cells) is reported as 357 nM, the IC50 [1] is reported as 50 nM and the IC50 [2] is reported as 910 nM.
`C=CC(=O)Nc1cc(-c2c[nH]c3ncnc(Nc4ccc5[nH]c(Cc6ccccc6)nc5c4)c23)ccc1OCCO` showed an IC50 (cells) greater than 3000 nM, an IC50 [1] of 188 nM and an IC50 [2] greater than 3000 nM.
In the case of `C=CC(=O)Nc1cccc(-c2c(-c3ccc(N4CCN(C)CC4)cc3)[nH]c3ncnc(Nc4ccc(OC(=O)C(c5ccccc5)N5Cc6ccccc6C5=O)cc4)c23)c1` (stereo not drawn), the IC50 (cells) is reported as 334 nM, the IC50 [1] is reported as 13 nM and the IC50 [2] is reported as 390 nM.
Work on `C=CC(=O)Nc1cc(-c2c[nH]c3ncnc(Nc4ccc(OCc5ccccn5)c(Cl)c4)c23)ccc1OCCCO` yielded an IC50 (cells) of 271 nM, an IC50 [1] of 9.3 nM and an IC50 [2] of 41 nM.
In the case of `C=CC(=O)Nc1cccc(-c2c(-c3ccc(N4CCN(C)CC4)cc3)[nH]c3ncnc(Nc4ccc(O)cc4)c23)c1`, the IC50 (cells) is reported as 165 nM, the IC50 [1] is reported as 3.9 nM and the IC50 [2] is reported as 431 nM.
Work on `C=CC(=O)Nc1cccc(-c2c[nH]c3ncnc(Nc4ccc(OCc5cccc(F)c5)c(Cl)c4)c23)c1` yielded an IC50 (cells) of 305 nM, an IC50 [1] of 14 nM and an IC50 [2] of 135 nM.
In the case of `CC(C)(O)CC(=O)NCCn1ccc2ncnc(Nc3ccc(Oc4cccc(C(F)(F)F)c4)c(Cl)c3)c21` [TAK-285], the IC50 (cells) is reported as 3980 nM and the IC50 [2] is reported as 3220 nM.
For `C=CC(=O)Nc1cc(-c2c[nH]c3ncnc(Nc4ccc(CN5C(=O)c6ccccc6C5=O)cc4)c23)ccc1OCCN(C)C`, the IC50 (cells) was 1200 nM, the IC50 [1] was 23 nM and the IC50 [2] was 621 nM.
Molecule `C=CC(=O)Nc1cccc(-c2c(-c3ccc(N4CCN(C)CC4)cc3)[nH]c3ncnc(OCC)c23)c1` has an IC50 (cells) of 417 nM, an IC50 [1] of 14 nM and an IC50 [2] of 327 nM.
`C=CC(=O)Nc1cccc(-c2c[nH]c3ncnc(Nc4ccc5[nH]c(Cc6ccccc6)nc5c4)c23)c1` showed an IC50 (cells) of 193 nM, an IC50 [1] of 3.5 nM and an IC50 [2] of 349 nM.
`C=CC(=O)Nc1cccc(-c2c(-c3ccc(N4CCN(C)CC4)cc3)[nH]c3ncnc(Nc4ccc(OCN5C(=O)c6ccccc6C5=O)cc4)c23)c1` showed an IC50 (cells) of 264 nM, an IC50 [1] of 12 nM and an IC50 [2] of 411 nM.
Molecule `C=CC(=O)Nc1cccc(-c2c(-c3ccc(N4CCN(C)CC4)cc3)[nH]c3ncn(CC)c(=O)c23)c1` has an IC50 (cells) of 2340 nM, an IC50 [1] of 84 nM and an IC50 [2] of 2810 nM.
`C=CC(=O)Nc1cccc(-c2c(-c3ccc(N4CCN(C)CC4)cc3)[nH]c3ncn(C(C)C)c(=O)c23)c1` showed an IC50 (cells) of 2050 nM, an IC50 [1] of 592 nM and an IC50 [2] of 3600 nM.
Work on `C=CC(=O)Nc1cc(Nc2nccc(-c3cn(C)c4ccccc34)n2)c(OC)cc1N(C)CCN(C)C` [OSIMERTINIB] yielded an IC50 (cells) of 808 nM and an IC50 [2] of 1390 nM.
Work on `C=CC(=O)Nc1cc(-c2c[nH]c3ncnc(Nc4ccc(CN5C(=O)c6ccccc6C5=O)cc4)c23)ccc1OCCO` yielded an IC50 (cells) of 1610 nM, an IC50 [1] of 15 nM and an IC50 [2] of 675 nM.
Work on `C=CC(=O)Nc1cccc(-c2c(-c3ccc(N4CCN(C)CC4)cc3)[nH]c3ncnc(Nc4ccc(OCc5cccc(F)c5)c(Cl)c4)c23)c1` yielded an IC50 (cells) greater than 30000 nM, an IC50 [1] of 95 nM and an IC50 [2] of 2220 nM.
`CN(C)C/C=C/C(=O)Nc1cc2c(Nc3ccc(F)c(Cl)c3)ncnc2cc1O[C@H]1CCOC1` [AFATINIB] gave a Papp B→A at 2 h, 5 µM [4] of 55.4 ×10⁻⁶ cm/s, a remaining at 1 h, 5 µM [5] of 101% and a microsomal CLint at 3 µM [7] of 1.4 µL/min/mg. The remaining at 1 h, 5 µM [8] was 96.5%, the microsomal CLint at 3 µM [9] was 9.4 µL/min/mg and the Papp A→B at 2 h, 5 µM [10] was 2.38 ×10⁻⁶ cm/s.
For `C=CC(=O)Nc1cccc(-c2c[nH]c3ncnc(Nc4ccc5c(ccn5Cc5ccccc5)c4)c23)c1`, the IC50 (cells) was 332 nM, the IC50 [1] was 7.9 nM and the IC50 [2] was 304 nM.
`C=CC(=O)Nc1cccc(-c2c(-c3ccc(N4CCN(C)CC4)cc3)[nH]c3ncnc(OC(C)C)c23)c1` gave an IC50 (cells) of 1180 nM, an IC50 [1] of 21 nM and an IC50 [2] of 1440 nM.
For `C=CC(=O)Nc1cc(-c2c[nH]c3ncnc(Nc4ccc(OCc5ccccn5)c(Cl)c4)c23)ccc1OCCO`, the IC50 (cells) was 201 nM, the IC50 [1] was 1.9 nM and the IC50 [2] was 84 nM.
`C=CC(=O)Nc1cccc(-c2c(-c3ccc(N4CCN(C)CC4)cc3)[nH]c3ncnc(Nc4ccc(OC(c5ccccc5)c5ccccc5)cc4)c23)c1` gave an IC50 (cells) of 2630 nM, an IC50 [1] of 4.5 nM and an IC50 [2] greater than 3000 nM.
Work on `CS(=O)(=O)CCNCc1ccc(-c2ccc3ncnc(Nc4ccc(OCc5cccc(F)c5)c(Cl)c4)c3c2)o1` [LAPATINIB] yielded a Papp B→A at 2 h, 5 µM [4] of 0.2 ×10⁻⁶ cm/s, an IC50 (cells) of 3940 nM and a remaining at 1 h, 5 µM [5] of 95.9%. It also gave a solubility kinetic at 1.5 h, 500 µM [6] of 4.1 µM (≈ 2.38 µg/mL), a microsomal CLint at 3 µM [7] of 16.7 µL/min/mg and a remaining at 1 h, 5 µM [8] of 99.7%. The microsomal CLint at 3 µM [9] was 73.7 µL/min/mg, the solubility kinetic at 2 h [11] was 3 µM (≈ 1.74 µg/mL) and the Papp A→B at 2 h, 5 µM [10] was 0.7 ×10⁻⁶ cm/s. It also gave an IC50 [2] of 2760 nM.
With `CCOc1cc2ncc(C#N)c(Nc3ccc(OCc4ccccn4)c(Cl)c3)c2cc1NC(=O)/C=C/CN(C)C` [NERATINIB] the Papp B→A at 2 h, 5 µM [4] was 0.4 ×10⁻⁶ cm/s, the IC50 (cells) was 148 nM and the remaining at 1 h, 5 µM [5] was 97.4%. The solubility kinetic at 1.5 h, 500 µM [6] was 1.2 µM (≈ 0.668 µg/mL), the microsomal CLint at 3 µM [7] was 42 µL/min/mg and the remaining at 1 h, 5 µM [8] was 80.7%. For the same molecule, the microsomal CLint at 3 µM [9] was 126 µL/min/mg, the solubility kinetic at 2 h [11] was greater than 10 µM and the Papp A→B at 2 h, 5 µM [10] was 0.09 ×10⁻⁶ cm/s. The Ki [12] was 6.3 nM and the IC50 [2] was less than 14 nM.

Reference: ChEMBL document CHEMBL4665812, “Targeting Her2-insYVMA with Covalent Inhibitors-A Focused Compound Screening and Structure-Based Design Approach” (J Med Chem, 2020)
